Measured values reported in patent US9725449B2, “Tricyclic compounds as anticancer agents” (BRISTOL-MYERS SQUIBB COMPANY, priority 2015, dated 2017).

What follows are molecules tested against BRD4 (Homo sapiens, UniProt O60885) (assay: Time resolved fluorescence resonance energy transfer (TR-FRET) binding assay, bromodomain BRD4). Conditions: one of the FRET assays described; read-out: FRET BRD4 IC50.
Work on COc1nccc2c3ncc(-c4c(C)nnn4C)cc3n(C(c3c(F)cccc3F)C3CCOCC3)c12 (racemic) [Example 27, 8-[(2,6-Difluorophenyl)(oxan-4-yl)methyl]-5-(dimethyl-1H-1,2,3-triazol-5-yl)-10-methoxy-3,8,11-triazatricyclo[7.4.0.0^2,^7]trideca-1(13),2(7),3,5,9,11-hexaene] yielded an IC50 of under 10 nM.
[2H]C([2H])([2H])c1nnn(C)c1-c1cnc2c3ccc(-c4c(C([2H])([2H])[2H])nnn4C)nc3n(C(c3ccccc3)C3CCC(F)(F)CC3)c2c1 (stereo not shown) [Example 260, 8-[(4,4-Difluorocyclohexyl)(phenyl)methyl]-5,11-bis[4-(^2H3)methyl-1-methyl-H-1,2,3-triazol-5-yl]-3,8,10-triazatricyclo[7.4.0.0^2,^7]trideca-1(13),2(7),3,5,9,11-hexaene] was tested, and the IC50 was under 10 nM.
Work on Cc1nnn(C)c1-c1cnc2c3ccc(N4CCN(C(=O)N(C)C)CC4)nc3n([C@H](c3ccccc3F)C3CCOCC3)c2c1 [Example 268, 4-[5-(Dimethyl-1H-1,2,3-triazol-5-yl)-8-[(S)-(2-fluorophenyl)(oxan-4-yl)methyl]-3,8,10-triazatricyclo[7.4.0.0^2,^7]trideca-1(13),2(7),3,5,9,11-hexaen-11-yl]-N,N-dimethylpiperazine-1-carboxamide] yielded an IC50 of under 1 nM.
[2H]C([2H])([2H])c1nnn(C)c1-c1cnc2c3c(NCC(F)(F)F)ncc(S(C)(=O)=O)c3n([C@H](c3ccccc3)C3CCOCC3)c2c1 [Example 277, 10-Methanesulfonyl-5-[4-(^2H3)methyl-1-methyl-1H-1,2,3-triazol-5-yl]-8-[(S)-oxan-4-yl(phenyl)methyl]-N-(2,2,2-trifluoroethyl)-3,8,12-triazatricyclo[7.4.0.0^2,^7]trideca-1(13),2(7),3,5,9,11-hexaen-13-amine] gave an IC50 of under 1 nM.
For Cc1nnn(C)c1-c1cnc2c3cnc(Cl)cc3n(C(c3ncccc3F)C3CCOCC3)c2c1 (single isomer, unassigned) [Example 317], the IC50 was under 1500 nM.
With Cc1nnn(C)c1-c1cnc2c3ccc(N4CCOCC4)nc3n([C@H](c3ccccc3)C3CCOCC3)c2c1 [Example 178, 5-(Dimethyl-1H-1,2,3-triazol-5-yl)-11-(morpholin-4-yl)-8-[(S)-oxan-4-yl(phenyl)methyl]-3,8,10-triazatricyclo[7.4.0.0^2,^7]trideca-1(9),2(7),3,5,10,12-hexaene] the IC50 was under 1 nM.
In the case of [2H]C([2H])([2H])c1nnn(C)c1-c1cnc2c3ccc(N4CC(N5CCS(=O)(=O)CC5)C4)nc3n([C@H](c3ccccc3)C3CCOCC3)c2c1 [Example 186, 4-(1-{5-[4-(^2H3)Methyl-1-methyl-1H-1,2,3-triazol-5-yl]-8-[(S)-oxan-4-yl(phenyl)methyl]-3,8,10-triazatricyclo[7.4.0.0^2,^7]trideca-1(9),2(7),3,5,10,12-hexaen-11-yl}azetidin-3-yl)-1λ^6,4-thiomorpholine-1,1-dione], the IC50 is reported as under 10 nM.
With CSc1ccc2c3ncc(-c4c(C)nnn4C)cc3n([C@H](c3ccccc3)C3CCOCC3)c2n1 [Example 194, 5-(Dimethyl-1H-1,2,3-triazol-5-yl)-11-(methylsulfanyl)-8-[(S)-oxan-4-yl(phenyl)methyl]-3,8,10-triazatricyclo[7.4.0.0^2,^7]trideca-1(9),2(7),3,5,10,12-hexaene] the IC50 was under 10 nM.
[2H]C([2H])([2H])c1onc(C)c1-c1cnc2c3c(OC)ncc(S(=O)(=O)C([2H])([2H])[2H])c3n(C(c3ncccc3F)C3CCOCC3)c2c1 (stereo not shown) [Example 67, 8-[(3-Fluoropyridin-2-yl)(oxan-4-yl)methyl]-10-(^2H3)methanesulfonyl-13-methoxy-5-[5-(^2H3)methyl-3-methyl-1,2-oxazol-4-yl]-3,8,12-triazatricyclo[7.4.0.0^2,^7]trideca-1(13),2(7),3,5,9,11-hexaene] showed an IC50 of under 1500 nM.
[2H]C([2H])([2H])c1nnn(C)c1-c1cnc2c3c(N[C@H](C)C4CC4)ncc(S(C)(=O)=O)c3n([C@H](c3ccccc3)C3CCOCC3)c2c1 [Example 114, N-[(1R)-1-Cyclopropylethyl]-10-methanesulfonyl-5-[4-(^2H3)methyl-1-methyl-1H-1,2,3-triazol-5-yl]-8-[(S)-oxan-4-yl(phenyl)methyl]-3,8,12-triazatricyclo[7.4.0.0^2,^7]trideca-1(13),2(7),3,5,9,11-hexaen-13-amine] showed an IC50 of under 10 nM.
Work on [2H]C([2H])([2H])c1nnn(C)c1-c1cnc2c3c(OC(C)C)nccc3n([C@H](c3ccccc3)C3CCOCC3)c2c1 [Example 131, 5-[4-(^2H3)Methyl-1-methyl-1H-1,2,3-triazol-5-yl]-8-[(S)-oxan-4-yl(phenyl)methyl]-13-(propan-2-yloxy)-3,8,12-triazatricyclo[7.4.0.0^2,^7]trideca-1(13),2(7),3,5,9,11-hexaene] yielded an IC50 of under 10 nM.
With [2H]C([2H])([2H])c1nnn(C)c1-c1cnc2c3cnc(C(C)(C)O)c(F)c3n([C@H](c3ccccc3)C3CCOCC3)c2c1 [Example 278, 2-{10-Fluoro-5-[4-(^2H3)methyl-1-methyl-1H-1,2,3-triazol-5-yl]-8-[(S)-oxan-4-yl(phenyl)methyl]-3,8,12-triazatricyclo[7.4.0.0^2,^7]trideca-1(13),2(7),3,5,9,11-hexaen-11-yl}propan-2-ol] the IC50 was under 1 nM.
Work on [2H]C([2H])([2H])c1nnn(C)c1-c1cnc2c3c(F)c(C(C)(C)O)ncc3n([C@H](c3ccccc3)C3CCOCC3)c2c1 [Example 292, 2-{13-Fluoro-5-[4-(^2H3)methyl-1-methyl-1H-1,2,3-triazol-5-yl]-8-[(S)-oxan-4-yl(phenyl)methyl]-3,8,11-triazatricyclo[7.4.0.0^2,^7]trideca-1(13),2(7),3,5,9,11-hexaen-12-yl}propan-2-ol] yielded an IC50 of under 10 nM.
CC(=O)c1ccc2c3ncc(-c4c(C)nnn4C)cc3n([C@H](c3ccccc3)C3CCOCC3)c2n1 [Example 171, 1-[5-(Dimethyl-1H-1,2,3-triazol-5-yl)-8-[(S)-oxan-4-yl(phenyl)methyl]-3,8,10-triazatricyclo[7.4.0.0^2,^7]trideca-1(9),2(7),3,5,10,12-hexaen-11-yl]ethan-1-one] gave an IC50 of under 10 nM.
CCOc1ncc(S(C)(=O)=O)c2c1c1ncc(-c3c(C)nnn3C)cc1n2[C@H](c1ccccc1)C1CCOCC1 [Example 53, 5-(Dimethyl-1H-1,2,3-triazol-5-yl)-13-ethoxy-10-methanesulfonyl-8-[(S)-oxan-4-yl(phenyl)methyl]-3,8,12-triazatricyclo[7.4.0.0^2,^7]trideca-1(13),2(7),3,5,9,11-hexaene] gave an IC50 of under 1 nM.
CNCCN(C)c1ccc2c3ncc(-c4c(OC)nnn4C)cc3n([C@H](c3ccccc3F)C3CCOCC3)c2n1 [Example 255, 8-[(S)-(2-Fluorophenyl)(oxan-4-yl)methyl]-5-(4-methoxy-1-methyl-1H-1,2,3-triazol-5-yl)-N-methyl-N-[2-(methylamino)ethyl]-3,8,10-triazatricyclo[7.4.0.0^2,^7]trideca-1(13),2(7),3,5,9,11-hexaen-11-amine] was tested, and the IC50 was under 10 nM.
Cc1noc(C)c1-c1cnc2c3cnc(C(C)(C)O)cc3n([C@H](c3ccccc3)C3CCOCC3)c2c1 [Example 335] was tested, and the IC50 was under 10 nM.
Cc1noc(C)c1-c1ccc2c3ncc(-c4c(C)nnn4C)cc3n([C@H](c3ccccc3)C3CCOCC3)c2n1 [Example 147, 11-(Dimethyl-1,2-oxazol-4-yl)-5-(dimethyl-1H-1,2,3-triazol-5-yl)-8-[(S)-oxan-4-yl(phenyl)methyl]-3,8,10-triazatricyclo[7.4.0.0^2,^7]trideca-1(13),2(7),3,5,9,11-hexaene] was tested, and the IC50 was under 10 nM.
For Cc1nnn(C)c1-c1cnc2c3c(O)nc(C(C)(C)O)cc3n([C@@H](c3ncccc3F)C3CCOCC3)c2c1 [Example 312, 8-[(R)-(3-Fluoropyridin-2-yl)(oxan-4-yl)methyl]-11-(2-hydroxypropan-2-yl)-5-[4-(^2H3)methyl-1-methyl-1H-1,2,3-triazol-5-yl]-3,8,12-triazatricyclo[7.4.0.0^2,^7]trideca-1(9),2(7),3,5,10,12-hexaen-13-ol], the IC50 was under 10 nM.
For C=C(C)c1ccc2c3ncc(-c4c(C)nnn4C)cc3n([C@H](c3ccccc3)C3CCOCC3)c2n1 [Example 161, 5-(Dimethyl-1H-1,2,3-triazol-5-yl)-8-[(S)-oxan-4-yl(phenyl)methyl]-11-(prop-1-en-2-yl)-3,8,10-triazatricyclo[7.4.0.0^2,^7]trideca-1(9),2(7),3,5,10,12-hexaene], the IC50 was under 10 nM.
[2H]C([2H])([2H])c1nnn(C)c1-c1cnc2c3c(NCC(F)(F)F)cncc3n(C(c3ncccc3F)C3CCOCC3)c2c1 (stereo not shown) [Example 303, 8-[(3-Fluoropyridin-2-yl)(oxan-4-yl)methyl]-5-[4-(^2H3)methyl-1-methyl-1H-1,2,3-triazol-5-yl]-N-(2,2,2-trifluoroethyl)-3,8,11-triazatricyclo[7.4.0.0^2,^7]trideca-1(9),2(7),3,5,10,12-hexaen-13-amine] was tested, and the IC50 was under 10 nM.
With [2H]C([2H])([2H])c1nnn(C)c1-c1cnc2c3cncc(S(C)(=O)=O)c3n([C@H](c3ccccc3)C3CCOCC3)c2c1 [Example 286, 10-Methanesulfonyl-5-[4-(^2H3)methyl-1-methyl-1H-1,2,3-triazol-5-yl]-8-[(S)-oxan-4-yl(phenyl)methyl]-3,8,12-triazatricyclo[7.4.0.0^2,^7]trideca-1(13),2(7),3,5,9,11-hexaene] the IC50 was under 10 nM.
With COc1nccc2c3ncc(-c4c(C)nnn4C)cc3n([C@H](c3ccccc3)C3CCOCC3)c12 [Example 13, 5-(Dimethyl-1H-1,2,3-triazol-5-yl)-10-methoxy-8-[(S)-oxan-4-yl(phenyl)methyl]-3,8,11-triazatricyclo[7.4.0.0^2,^7]trideca-1(13),2(7),3,5,9,11-hexaene] the IC50 was under 1 nM.
In the case of COc1ncc(S(C)(=O)=O)c2c1c1ncc(-c3c(C)noc3C)cc1n2[C@H](c1ccc(F)cc1)C1CCOCC1 [Example 49, 5-(Dimethyl-1,2-oxazol-4-yl)-8-[(S)-(4-fluorophenyl)(oxan-4-yl)methyl]-10-methanesulfonyl-13-methoxy-3,8,12-triazatricyclo[7.4.0.0^2,^7]trideca-1(13),2(7),3,5,9,11-hexaene], the IC50 is reported as under 1 nM.
For Cc1nnn(C)c1-c1cnc2c3ccc(Cl)nc3n([C@H](c3ccccc3)C3CCOCC3)c2c1 [Example 14, 11-Chloro-5-(dimethyl-1H-1,2,3-triazol-5-yl)-8-[(S)-oxan-4-yl(phenyl)methyl]-3,8,10-triazatricyclo[7.4.0.0^2,^7]trideca-1(9),2(7),3,5,10,12-hexaene], the IC50 was under 10 nM.
